Assay: Solubility of the metal complex A in organic solvents
Type: physicochemical
Method: The solubility of the metal complex A in organic solvents was tested.

[Pd2Au2Cl2(μ-dmpz)4(dmpzH)2] [metal complex A]
solubility in organic solvent (acetone): insoluble | solubility in organic solvent (acetonitrile): insoluble | solubility in organic solvent (benzene): slightly soluble | solubility in organic solvent (chloroform): soluble | solubility in organic solvent (diethyl ether): insoluble | solubility in organic solvent (ethanol): insoluble | solubility in organic solvent (hexane): insoluble | solubility in organic solvent (methanol): insoluble | solubility in organic solvent (methylene chloride): soluble | solubility in organic solvent (toluene): slightly soluble
